Series [1] has as its system SARS-CoV-2. Nature of the series: Antiviral potency against SARS-CoV-2 in Vero-E6 cells (protection from virus-induced cytopathic effect / intracellular viral antigen accumulation). It counts as cell-based.
The nature of series [2]: Determination of cytotoxicity by MTT colorimetric assay. The series is classed as cell-based. The following applies: African green monkey, uninfected Vero-E6 cells, 50 to 0.78 µM. As for the experimental part: Determination of cytotoxicity by MTT colorimetric assay: To evaluate the cytotoxicity profile of the selected compounds MTT assays were performed in Vero-E6 cells. Uninfected cells were incubated with a range of compound concentrations (from 50 to 0.78 µM) for forty-eight hours, time at which the MTT substrate [3-(4,5-dimethylthiazol-2-yl)-2,5-diphenyltetrazolium bromide] was added and the formation of formazan precipitates was evaluated two hours later, using a colorimetric readout. Vehicle-treated cells were used as reference (100%).
Background: Formazan colour is commonly taken as a measure of viable cells.

Series [3] relates to hCoV-229E-GFP. It counts as cell-based, Human coronavirus 229E.
Series [4] concerns SARS-CoV-2. The series is described as follows: Intracellular viral RNA quantitation by RT-qPCR. It counts as cell-based. The following applies: 15µM; for intracellular viral RNA levels (in words): as compared with the uninfected controls; for % RNA relative to DMSO: Vero-E6, MOI 0.001, 48 h, SARS-CoV-2 E gene normalised to 18S, DMSO set as 100%.
Where [5] appears, read: Severe acute respiratory syndrome coronavirus 2, Vero C1008, SARS-CoV-2 strain NL/2020, Vero-E6 cells, mean, read-out: EC50 mean.
The mark [6] stands for this setting: Severe acute respiratory syndrome coronavirus 2, Vero C1008, SARS-CoV-2 strain NL/2020, Vero-E6 cells, mean, read-out: EC90 mean.

Like-named read-outs stand apart in the source and are kept apart here. Bounds are passed on as bounds.

By EC50 is commonly meant the midpoint of the concentration-response curve. In general, EC90 refers to the point of the concentration-response curve where the effect stands at 90%. For orientation: CC50 means the concentration at which the toxic effect on the cells reaches its halfway point. With `CC(C)(C)OC(=O)NCCCC[C@H]1C(=O)NCC([C@H](Cc2cn(C(=O)OC(C)(C)C)c3ccccc23)NC(=O)OC(C)(C)C)N1Cc1ccccc1` (stereo in doubt) [Example 4, (5R,3S)-4-benzyl-5-((S)-1-(tert-butoxycarbonyl)amino-2-(1-(tert-butoxycarbonyl)(indol-3-yl))-ethyl)-3-(4-(tert-butoxycarbonyl)amino-butyl)-2-oxopiperazine], in series [1] (Severe acute respiratory syndrome coronavirus 2, Vero C1008, read-out: EC50 mean), the EC50 came to 1.6 µM. Moreover, in series [1] (Severe acute respiratory syndrome coronavirus 2, Vero C1008, read-out: EC90 mean), the EC90 was 14.7 µM. Further, the CC50 at 48 h in series [2] is > 50 µM. Further, the “% Reduction of hCoV-229E-GFP propagation” value in series [3] is listed as 97%.
Consider `CC(C)(C)OC(=O)CN1[C@@H]([C@H](Cc2cn(C(=O)OC(C)(C)C)c3ccccc23)NC(=O)OC(C)(C)C)CNC(=O)[C@@H]1CCCCNC(=O)OC(C)(C)C` [Example 5, (5R,3S)-5-((S)-1-(tert-butoxycarbonyl)amino-2-(1-(tert-butoxycarbonyl)-(indol-3-yl))-ethyl)-4(tert-butoxycarbonyl)methyl-3-(4-(tert-butoxycarbonyl)aminobutyl)-2-oxopiperazine], for which the EC50 in series [1] (setting [5]) amounted to 1.93 µM. Further, in series [1] (setting [6]), the EC90 worked out at 7.33 µM. The cytotoxic concentration (CC50) at 48 h in series [2] was > 50 µM. In series [3], the “% Reduction of hCoV-229E-GFP propagation” value was 94%.
On to `CC(C)(C)OC(=O)CN1[C@@H](CCCCNC(=O)OC(C)(C)C)C(=O)NC[C@H]1[C@H](Cc1cn(C(=O)OC(C)(C)C)c2ccccc12)NC(=O)OC(C)(C)C` [Example 6, (5S,3S)-5-((S)-1-(tert-butoxycarbonyl)amino-2-(1-(tert-butoxycarbonyl)-(indol-3-yl))-ethyl)-4(tert-butoxycarbonyl)methyl-3-(4-(tert-butoxycarbonyl)aminobutyl)-2-oxopiperazine], for which the EC50 in series [1] (setting [5]) turned out to be 3.17 µM. Moreover, the 90% effect concentration (EC90) in series [1] (setting [6]) was found to be 9.67 µM. In series [2], the CC50 at 48 h was > 50 µM. In series [4], the “intracellular viral RNA levels (in words)” value is recorded as “virtually undetectable levels” and the “% RNA relative to DMSO” value is given as 10^-4%. Further, the “% Reduction of hCoV-229E-GFP propagation” value in series [3] is given as 98%.
Consider `CC(C)(C)OC(=O)NCCCC[C@@H]1N[C@H]([C@H](Cc2cn(C(=O)OC(C)(C)C)c3ccccc23)NC(=O)OC(C)(C)C)CNC1=O` [Example 2, (5S,3S)-5-((S)-1-(tert-butoxycarbonyl)amino-2-(1-(tert-butoxycarbonyl)(indol-3-yl))-ethyl)-3-(4-(tert-butoxycarbonyl)amino-butyl)-2-oxopiperazine], for which the EC50 in series [1] (setting [5]) was determined as 15.3 µM. In series [1] (setting [6]), the 90% effect concentration (EC90) was found to be 46.7 µM. In series [2], the CC50 at 48 h is > 50 µM.
For `CC(C)(C)OC(=O)NCCCC[C@H]1C(=O)NC[C@H]([C@H](Cc2cn(C(=O)OC(C)(C)C)c3ccccc23)NC(=O)OC(C)(C)C)N1Cc1ccccc1` [Example 3, (5R,3S)-4-benzyl-5-((S)-1-(tert-butoxycarbonyl)amino-2-(1-(tert-butoxycarbonyl)(indol-3-yl))-ethyl)-3-(4-(tert-butoxycarbonyl)amino-butyl)-2-oxopiperazine], the concentration for a half-maximal effect (EC50) in series [1] (setting [5]) amounted to 6.33 µM. For the same compound, the EC90 in series [1] (setting [6]) is 14.3 µM. Besides, in series [2], the CC50 at 48 h is > 50 µM. Further, in series [4], the “intracellular viral RNA levels (in words)” value was “virtually undetectable levels” and the “% RNA relative to DMSO” value is reported as 10^-2%. For the same compound, in series [3], the “% Reduction of hCoV-229E-GFP propagation” value came to 94%.
